In the supplement of paper PMC10883282:

Legend:
Assay in all cases: relative viability vs DMSO control (72 h) (fraction); higher = more viable cells
SW872 = tested on: SW872
In short: (§1)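 Serially diluted compound, 2.5 µl from source plates spanning 10 mM to 0.0002 mM, was added 24 h after sarcoma cell lines were seeded in 384-well plates at densities targeting 80–90% confluence. Plates then sat 72 h at 37 °C, 5% CO2, with 0.1% DMSO vehicle and a 5 µM positive control. Relative viability came from ATPLite as percent growth, averaged over up to triplicate wells, and was rescaled with 1 as full and 0 as none.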

SW684 = tested on: SW684
In short: as §1

RD-ES = tested on: RD-ES
In short: as §1

HS729 = tested on: HS729
In short: as §1

VA-ES-BJ = tested on: VA-ES-BJ
In short: as §1

KHOS-NP = tested on: KHOS-NP
In short: as §1

G401 = tested on: G401
In short: as §1

SK-ES-1 = tested on: SK-ES-1
In short: as §1

HT1080 = tested on: HT1080
In short: as §1

A204 = tested on: A204
In short: as §1

SW982 = tested on: SW982
In short: as §1

SK-LMS-1 = tested on: SK-LMS-1
In short: as §1

CCC(=O)N1CC[C@H](Nc2ncnc3c2CN(c2cnc(OC)c(C(F)(F)F)c2)CC3)C1 [Leniolisib]
Settings | relative viability
A204, 0.00017 µM | 1.04
A204, 0.00051 µM | 1.06
A204, 0.00152 µM | 1
A204, 0.00457 µM | 1.04
A204, 0.01372 µM | 1.03
A204, 0.04115 µM | 1.02
A204, 0.1235 µM | 1.01
A204, 0.3704 µM | 0.986
A204, 1.111 µM | 0.897
A204, 3.333 µM | 0.768
A204, 10 µM | 0.579
G401, 0.00017 µM | 1.02
G401, 0.00051 µM | 1
G401, 0.00152 µM | 1.01
G401, 0.00457 µM | 1.01
G401, 0.01372 µM | 1.02
G401, 0.04115 µM | 0.973
G401, 0.1235 µM | 0.947
G401, 0.3704 µM | 0.936
G401, 1.111 µM | 0.868
G401, 3.333 µM | 0.835
G401, 10 µM | 0.689
HS729, 0.00017 µM | 1.07
HS729, 0.00051 µM | 1.02
HS729, 0.00152 µM | 0.964
HS729, 0.00457 µM | 0.982
HS729, 0.01372 µM | 0.965
HS729, 0.04115 µM | 0.95
HS729, 0.1235 µM | 0.947
HS729, 0.3704 µM | 0.992
HS729, 1.111 µM | 0.838
HS729, 3.333 µM | 0.82
HS729, 10 µM | 0.675
HT1080, 0.00017 µM | 1.09
HT1080, 0.00051 µM | 1.077
HT1080, 0.00152 µM | 1.1
HT1080, 0.00457 µM | 1.09
HT1080, 0.01372 µM | 1.05
HT1080, 0.04115 µM | 1.038
HT1080, 0.1235 µM | 1.05
HT1080, 0.3704 µM | 1.04
HT1080, 1.111 µM | 1.03
HT1080, 3.333 µM | 1.04
HT1080, 10 µM | 0.94
KHOS-NP, 0.00017 µM | 1.11
KHOS-NP, 0.00051 µM | 1.11
KHOS-NP, 0.00152 µM | 1.09
KHOS-NP, 0.00457 µM | 1.101
KHOS-NP, 0.01372 µM | 1.08
KHOS-NP, 0.04115 µM | 1.07
KHOS-NP, 0.1235 µM | 1.07
KHOS-NP, 0.3704 µM | 1.061
KHOS-NP, 1.111 µM | 1.05
KHOS-NP, 3.333 µM | 1.05
KHOS-NP, 10 µM | 0.96
RD-ES, 0.00017 µM | 0.985
RD-ES, 0.00051 µM | 1.034
RD-ES, 0.00152 µM | 1.03
RD-ES, 0.00457 µM | 1.03
RD-ES, 0.01372 µM | 1
RD-ES, 0.04115 µM | 1.02
RD-ES, 0.1235 µM | 0.989
RD-ES, 0.3704 µM | 0.958
RD-ES, 1.111 µM | 0.908
RD-ES, 3.333 µM | 0.856
RD-ES, 10 µM | 0.709
SK-ES-1, 0.00017 µM | 1.04
SK-ES-1, 0.00051 µM | 1.02
SK-ES-1, 0.00152 µM | 1.07
SK-ES-1, 0.00457 µM | 1.02
SK-ES-1, 0.01372 µM | 1.04
SK-ES-1, 0.04115 µM | 1.05
SK-ES-1, 0.1235 µM | 1.01
SK-ES-1, 0.3704 µM | 1
SK-ES-1, 1.111 µM | 0.999
SK-ES-1, 3.333 µM | 0.898
SK-ES-1, 10 µM | 0.741
SK-LMS-1, 0.00017 µM | 1.11
SK-LMS-1, 0.00051 µM | 1.07
SK-LMS-1, 0.00152 µM | 1.1
SK-LMS-1, 0.00457 µM | 1.08
SK-LMS-1, 0.01372 µM | 1.05
SK-LMS-1, 0.04115 µM | 1.04
SK-LMS-1, 0.1235 µM | 1.06
SK-LMS-1, 0.3704 µM | 0.998
SK-LMS-1, 1.111 µM | 0.939
SK-LMS-1, 3.333 µM | 0.827
SK-LMS-1, 10 µM | 0.712
SW684, 0.00017 µM | 1.091
SW684, 0.00051 µM | 1.14
SW684, 0.00152 µM | 1.14
SW684, 0.00457 µM | 1.14
SW684, 0.01372 µM | 1.15
SW684, 0.04115 µM | 1.03
SW684, 0.1235 µM | 0.912
SW684, 0.3704 µM | 0.793
SW684, 1.111 µM | 0.742
SW684, 3.333 µM | 0.674
SW684, 10 µM | 0.548
SW872, 0.00017 µM | 1.1
SW872, 0.00051 µM | 1.09
SW872, 0.00152 µM | 1.07
SW872, 0.00457 µM | 1.06
SW872, 0.01372 µM | 1.06
SW872, 0.04115 µM | 1.03
SW872, 0.1235 µM | 1.03
SW872, 0.3704 µM | 1.03
SW872, 1.111 µM | 0.951
SW872, 3.333 µM | 0.907
SW872, 10 µM | 0.688
SW982, 0.00017 µM | 1.02
SW982, 0.00051 µM | 1.05
SW982, 0.00152 µM | 1.05
SW982, 0.00457 µM | 1.05
SW982, 0.01372 µM | 1.06
SW982, 0.04115 µM | 1.06
SW982, 0.1235 µM | 1.02
SW982, 0.3704 µM | 1.02
SW982, 1.111 µM | 0.985
SW982, 3.333 µM | 0.836
SW982, 10 µM | 0.678
VA-ES-BJ, 0.00017 µM | 1.08
VA-ES-BJ, 0.00051 µM | 1.09
VA-ES-BJ, 0.00152 µM | 1.05
VA-ES-BJ, 0.00457 µM | 1.04
VA-ES-BJ, 0.01372 µM | 1.02
VA-ES-BJ, 0.04115 µM | 1.06
VA-ES-BJ, 0.1235 µM | 1.01
VA-ES-BJ, 0.3704 µM | 1
VA-ES-BJ, 1.111 µM | 0.984
VA-ES-BJ, 3.333 µM | 0.88
VA-ES-BJ, 10 µM | 0.645
